Data as given in ChEMBL document CHEMBL1201862, “PubChem BioAssay data set” (2004).
Calls of active or inactive are those of the source.

Columns and labels:
Coagulation factor XII = target: T1, Coagulation factor XII (Homo sapiens, UniProt P00748); assay: FXIIa inhibitor potency, concentration-response, biochemical (AID 716); type: functional
T1 sequence (P00748 whole entry): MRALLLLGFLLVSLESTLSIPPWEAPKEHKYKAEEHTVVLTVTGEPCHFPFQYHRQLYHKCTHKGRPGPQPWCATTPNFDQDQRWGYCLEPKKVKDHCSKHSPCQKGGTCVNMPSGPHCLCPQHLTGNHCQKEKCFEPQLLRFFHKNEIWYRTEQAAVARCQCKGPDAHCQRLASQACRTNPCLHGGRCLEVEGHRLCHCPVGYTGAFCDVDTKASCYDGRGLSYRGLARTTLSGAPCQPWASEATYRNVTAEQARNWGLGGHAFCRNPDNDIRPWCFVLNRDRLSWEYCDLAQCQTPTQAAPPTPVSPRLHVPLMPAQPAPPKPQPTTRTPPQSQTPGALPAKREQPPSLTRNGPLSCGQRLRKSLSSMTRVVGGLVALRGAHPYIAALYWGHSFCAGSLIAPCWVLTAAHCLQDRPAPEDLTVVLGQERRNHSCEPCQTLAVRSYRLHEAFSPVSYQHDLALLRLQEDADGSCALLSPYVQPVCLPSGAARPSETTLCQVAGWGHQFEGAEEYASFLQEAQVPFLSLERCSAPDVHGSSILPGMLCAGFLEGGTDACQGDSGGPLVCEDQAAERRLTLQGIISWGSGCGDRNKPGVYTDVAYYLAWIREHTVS

HEK293 [1] = assay: cells; type: functional, cell-based; conditions: Homo sapiens
HEK293 [2] = assay: NOD2 signaling inhibitors in MDP-stimulated cells, cell-based, uHTS, luminescence (AID 2001); type: functional; conditions: Homo sapiens
HEK293 [3] = assay: cells; type: functional, cell-based; conditions: Homo sapiens; remark: listed apart in the source
Major prion protein = Major prion protein (Homo sapiens, UniProt P04156); type: functional, cell-based
HEK293 [4] = assay: cells; type: functional, cell-based; conditions: Homo sapiens; remark: listed apart in the source
HEK293 [5] = assay: NOD1 signaling inhibitors, primary screen, cell-based, luminescence, uHTS (AID 1578); type: functional; conditions: Homo sapiens
[6] = target: Nucleotide-binding oligomerization domain-containing protein 2 (Homo sapiens, UniProt Q9HC29); assay: NOD2 signaling inhibitors, cell-based, luminescence, uHTS, HEK293 (AID 1566); type: functional
Cannabinoid receptor 1 [7] = target: T2, Cannabinoid receptor 1 (Homo sapiens, UniProt P21554); assay: SAR analysis of agonists of the Cannabinoid Receptor 1 using an Image-Based Assay - Set 3. [Related pubchem assays (depositor defined):AID1961, AID1965]; type: functional
[8] = target: T3, G-protein coupled receptor 35 (Homo sapiens, UniProt Q9HC97); assay: SAR analysis of Agonists of the GPR35 Receptor using an Image-Based Assay - Set 3. [Related pubchem assays (depositor defined):AID1961, AID1965]; type: functional
[9] = target: G-protein coupled receptor 55 (Homo sapiens, UniProt Q9Y2T6); assay: SAR analysis of selective Agonists of GPR55 using an Image-Based Assay - Set 2. [Related pubchem assays (depositor defined):AID1961, AID1965]; type: functional
Cannabinoid receptor 1 [10] = target: T2, Cannabinoid receptor 1; assay: SAR analysis of antagonists of the Cannabinoid Receptor 1 using an Image-Based Assay - Set 3. [Related pubchem assays (depositor defined):AID1961, AID1965]; type: functional
[11] = target: T3, G-protein coupled receptor 35; assay: SAR analysis of Antagonists of the GPR35 Receptor using an Image-Based Assay - Set 4. [Related pubchem assays (depositor defined):[…]]; type: functional
Cannabinoid receptor 2 [12] = target: T4, Cannabinoid receptor 2 (Homo sapiens, UniProt P34972); assay: SAR analysis of antagonists of the Cannabinoid Receptor 2 using an Image-Based Assay - Set 2. [Related pubchem assays (depositor defined):AID1961, AID1965]; type: functional
Cannabinoid receptor 2 [13] = target: T4, Cannabinoid receptor 2; assay: SAR analysis of agonists of the Cannabinoid Receptor 2 using an Image-Based Assay - Set 2. [Related pubchem assays (depositor defined):AID1961, AID1965]; type: functional
[14] = growth suppression of PTEN-null colon cells, dose response, cell-based, HCT116 PTEN knockout (AID 1047); type: functional;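 further: HCT116 colon tumor cells with PTEN knocked out; cells exposed to compound for 60 hours before readout; potency for loss of cell viability measured by luminescence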
[15] = target: T5, Sentrin-specific protease 8 (Homo sapiens, UniProt Q96LD8); type: functional;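 further: luminescence read-out of SENP8 inhibition, dose-response confirmation following an ultra-high-throughput screen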
T5 sequence (Q96LD8 whole entry): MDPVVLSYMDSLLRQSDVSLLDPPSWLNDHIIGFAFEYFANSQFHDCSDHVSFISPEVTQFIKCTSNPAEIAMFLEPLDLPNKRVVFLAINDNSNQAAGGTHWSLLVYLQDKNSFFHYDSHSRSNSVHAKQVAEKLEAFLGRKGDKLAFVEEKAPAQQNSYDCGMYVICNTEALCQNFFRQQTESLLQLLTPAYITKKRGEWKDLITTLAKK

[16] = growth suppression of beta-catenin-knockout colon cells, dose response, cell-based, HCT116, human colon tumor (AID 1045); type: functional;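 further: HCT116 colon tumor cells with beta catenin knocked out; cells exposed to compound for 60 hours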
[17] = target: T6, Sentrin-specific protease 6 (Homo sapiens, UniProt Q9GZR1); type: functional;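 further: Luminescence-based dose-response confirmatory assay of SENP6 inhibition, following up an ultra-high-throughput screen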
T6 sequence (Q9GZR1 whole entry): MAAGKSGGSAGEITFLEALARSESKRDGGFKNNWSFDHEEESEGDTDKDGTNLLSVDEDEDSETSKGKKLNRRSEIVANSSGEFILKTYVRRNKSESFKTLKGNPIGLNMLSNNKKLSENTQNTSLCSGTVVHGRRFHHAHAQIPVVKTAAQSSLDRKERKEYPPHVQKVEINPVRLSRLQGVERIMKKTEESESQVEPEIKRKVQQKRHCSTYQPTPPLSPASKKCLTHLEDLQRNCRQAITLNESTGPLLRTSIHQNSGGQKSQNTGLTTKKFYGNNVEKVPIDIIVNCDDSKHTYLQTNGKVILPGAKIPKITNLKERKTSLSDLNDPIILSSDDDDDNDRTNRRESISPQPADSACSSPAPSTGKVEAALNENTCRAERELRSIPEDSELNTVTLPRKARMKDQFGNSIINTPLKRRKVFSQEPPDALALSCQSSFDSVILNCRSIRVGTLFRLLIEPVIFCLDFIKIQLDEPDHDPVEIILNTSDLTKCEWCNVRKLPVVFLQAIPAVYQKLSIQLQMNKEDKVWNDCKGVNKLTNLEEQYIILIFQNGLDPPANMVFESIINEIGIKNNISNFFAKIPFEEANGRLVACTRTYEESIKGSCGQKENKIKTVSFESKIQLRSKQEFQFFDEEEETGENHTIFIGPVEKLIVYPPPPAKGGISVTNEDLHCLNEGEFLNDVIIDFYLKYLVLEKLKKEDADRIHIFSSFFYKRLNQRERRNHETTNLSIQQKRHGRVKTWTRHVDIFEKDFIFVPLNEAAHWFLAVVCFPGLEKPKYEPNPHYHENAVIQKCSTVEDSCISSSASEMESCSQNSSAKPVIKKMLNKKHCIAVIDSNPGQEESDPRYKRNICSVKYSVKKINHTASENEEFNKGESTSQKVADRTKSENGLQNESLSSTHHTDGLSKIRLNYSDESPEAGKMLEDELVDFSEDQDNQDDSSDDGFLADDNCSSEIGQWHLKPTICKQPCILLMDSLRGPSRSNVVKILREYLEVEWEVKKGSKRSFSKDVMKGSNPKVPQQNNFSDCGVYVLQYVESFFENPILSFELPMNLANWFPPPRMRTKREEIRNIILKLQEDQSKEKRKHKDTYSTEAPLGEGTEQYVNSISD

Caspase-3 = target: T7, Caspase-3 (Homo sapiens, UniProt P42574); type: functional;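 further: Dose-response selectivity test against caspase-3 for candidate inhibitors of sentrin-specific proteases (SENPs)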
T7 sequence (P42574 whole entry): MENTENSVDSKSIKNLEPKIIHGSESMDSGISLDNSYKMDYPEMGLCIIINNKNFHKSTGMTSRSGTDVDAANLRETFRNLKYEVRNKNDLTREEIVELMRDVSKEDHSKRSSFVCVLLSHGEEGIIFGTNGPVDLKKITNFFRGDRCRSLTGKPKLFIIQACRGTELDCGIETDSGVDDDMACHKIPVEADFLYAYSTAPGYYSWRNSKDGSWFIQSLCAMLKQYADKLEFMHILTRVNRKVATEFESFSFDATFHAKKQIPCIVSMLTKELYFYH

[18] = target: T8, Sentrin-specific protease 7 (Homo sapiens, UniProt Q9BQF6); type: functional;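 further: Luminescence-based dose-response confirmation of ultra-high-throughput screening hits, measuring inhibition of SENP7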
T8 sequence (Q9BQF6 whole entry): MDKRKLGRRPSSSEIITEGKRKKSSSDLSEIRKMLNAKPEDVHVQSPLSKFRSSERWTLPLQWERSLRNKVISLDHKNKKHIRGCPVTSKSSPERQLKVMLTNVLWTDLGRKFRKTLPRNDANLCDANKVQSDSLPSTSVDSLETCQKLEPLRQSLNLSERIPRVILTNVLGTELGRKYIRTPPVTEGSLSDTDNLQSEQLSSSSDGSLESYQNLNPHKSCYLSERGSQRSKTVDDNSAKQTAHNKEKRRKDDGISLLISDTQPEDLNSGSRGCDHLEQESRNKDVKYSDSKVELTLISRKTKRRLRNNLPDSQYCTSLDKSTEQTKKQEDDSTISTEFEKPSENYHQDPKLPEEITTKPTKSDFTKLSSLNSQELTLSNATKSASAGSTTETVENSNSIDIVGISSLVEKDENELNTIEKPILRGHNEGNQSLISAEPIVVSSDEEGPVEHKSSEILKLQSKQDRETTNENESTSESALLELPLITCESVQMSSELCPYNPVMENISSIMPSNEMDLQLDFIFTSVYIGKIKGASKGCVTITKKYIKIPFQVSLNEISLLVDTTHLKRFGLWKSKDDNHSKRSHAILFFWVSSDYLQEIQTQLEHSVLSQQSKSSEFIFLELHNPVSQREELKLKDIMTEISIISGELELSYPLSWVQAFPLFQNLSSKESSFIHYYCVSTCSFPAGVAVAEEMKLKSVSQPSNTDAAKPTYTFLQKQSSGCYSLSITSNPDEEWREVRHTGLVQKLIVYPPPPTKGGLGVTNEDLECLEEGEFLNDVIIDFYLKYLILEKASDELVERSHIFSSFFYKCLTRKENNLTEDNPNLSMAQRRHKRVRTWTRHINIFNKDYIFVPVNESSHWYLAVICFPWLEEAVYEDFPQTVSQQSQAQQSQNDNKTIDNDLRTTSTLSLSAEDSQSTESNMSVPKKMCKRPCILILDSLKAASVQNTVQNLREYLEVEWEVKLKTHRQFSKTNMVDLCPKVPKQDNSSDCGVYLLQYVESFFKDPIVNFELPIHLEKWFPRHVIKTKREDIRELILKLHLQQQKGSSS

[19] = target: Photoreceptor-specific nuclear receptor (Homo sapiens, UniProt Q9Y5X4); type: functional, cell-based;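 further: CHO-S cells with Gal4-NCOR and VP16-NR2E3 two-hybrid luciferase reporter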
[20] = THP-1 cell cytotoxicity, dose response, cytotoxicity control for non-replicating M. tuberculosis project (AID 489025); type: functional
[21] = Vero E6 cell cytotoxicity, dose response, cytotoxicity control for non-replicating M. tuberculosis project, secondary assay (AID 492998); type: functional, VeroE6; conditions: Vero C1008
[22] = HepG2 cell cytotoxicity, dose response, cytotoxicity control for non-replicating M. tuberculosis project (AID 489018); type: functional; conditions: Mycobacterium tuberculosis
INS1 = assay: beta cell apoptosis inhibitors, cytokine rescue, dose response, luminescence, retest (AID 449756); type: functional, cell-based; conditions: Rattus norvegicus;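 further: cell death triggered by IL-1 beta plus TNF-alpha plus IFN-gamma mixture; protective hits raise ATP signal compared with cytokine alone wells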

With `CC(C)CCn1c(=S)[nH]c2ncccc2c1=O` as the compound, how does the IC50 (Coagulation factor XII) read?
The IC50 was > 50 µM (inactive).

Which IC50 (HEK293 [1]) does the source give for `Cc1nc2c(Br)cc(Br)cc2cc1O` here?
The IC50 was 6.3 µM (active).

And the IC50 (HEK293 [2])?
Its IC50 is 6.68 µM (active).

And the IC50 (HEK293 [3])?
The IC50 was > 20 µM (inactive).

And the IC50 (Major prion protein)?
Its IC50 is 1.36 µM (active).

And the IC50 (cells)?
Its IC50 is > 138 µM (inactive).

And the IC50 (HEK293 [4])?
The IC50 was > 20 µM (inactive).

And the EC50 (HEK293 [5])?
Its EC50 is 11.4 µM (active).

And the EC50 [6]?
The EC50 was 13.2 µM (active).

Which results are given for `COc1ccc(S(=O)(=O)N2CCOCC2)cc1NC(=O)c1ccc2c(c1)OCO2`?
EC50 (Cannabinoid receptor 1 [7]): > 32 µM (inactive); EC50 [8]: > 32 µM (inactive); EC50 [9]: 18 µM (inactive); IC50 (Cannabinoid receptor 1 [10]): > 32 µM (inactive); IC50 [11]: > 32 µM (inactive); IC50 (Cannabinoid receptor 2 [12]): > 32 µM (inactive); EC50 (Cannabinoid receptor 2 [13]): > 32 µM (inactive)

What does the source list for `COc1ccccc1-n1c(=O)oc2ccc(Cl)cc2c1=O`?
EC50 [14]: 11.7 µM (active); IC50 [15]: 22.6 µM (active); EC50 [16]: 11.9 µM (active); IC50 [17]: 16.5 µM (active); IC50 (Caspase-3): 26.9 µM (active); IC50 [18]: 11.5 µM (active); IC50 [19]: 5.1 µM (active); CC50 [20]: 19.8 µM (active); CC50 [21]: > 20 µM (active); CC50 [22]: > 20 µM (active); AC50 (INS1): 8.62 µM (active)
